Measurements reported in publication PMC8608343 (PLoS ONE, 2021).
In brackets after ≈: the same amount, converted by molar mass.

Assays:
[1] = test system: Leishmania donovani amastigotes; test: ROS generation in treated amastigotes (H2DCFDA); format: cell-based; conditions: 100, 50 or 25 μM, 24 hrs
Protocol: (§1) The degree of reactive oxygen species (ROS) production in treated promastigote and amastigote cells of L. donovani were assessed using the H2DCFDA (2’,7’-dichlorodihydrofluorescein diacetate) rich fluorescent dye (MAK145 Sigma-Aldrich) ROS detection kit. […] Amoxicillin was used as a positive control for pro-oxidative generation while Vitamin C was used as a positive control for anti-oxidative potential. The treated and untreated cells were then suspended in PBS, washed, and resuspended in PBS, then incubated with the ROS detection master mix for 1 hr as instructed by the protocol. The cells were analyzed for intracellular ROS generation by measuring the fluorescence intensity which is proportional to the ROS production level using the Varioskan Lux Elisa microplate reader (Thermo Fischer Scientific, USA) at a wavelength of 605 nm.

[2] = test system: Leishmania donovani promastigotes; test: ROS generation in treated promastigotes (H2DCFDA); format: cell-based; conditions: 100, 50 or 25 μM, 72 hrs
Protocol: as §1

[3] = test system: Leishmania donovani promastigotes; test: Antileishmanial activity against promastigotes (MTT assay); format: cell-based; conditions: for IC50: Leishmania donovani, read-out: IC50 (μg/ml) ±SD promastigote; for IC50 / IC50 (μg/ml) ±SD promastigote: 96 hrs at 25° C, MTT, mean of three experiments; for Therapeutic Index (TC50/IC50) promastigotes: TC50 RAW / IC50 promastigote
From the text: Amphotericin B was used as a positive control. The 3-(4,5-Dimethylthiazol-2-yl)-2,5-diphenyltetrazolium bromide (MTT) assay was used to determine the parasite viability as previously described.

[4] = test system: Leishmania donovani amastigotes in RAW macrophage cells; test: Antileishmanial activity against macrophage-amastigotes (MTT assay); format: cell-based; conditions: for IC50: Leishmania donovani, Macrophage, read-out: IC50 (μg/ml) ±SD amastigote; for IC50 / IC50 (μg/ml) ±SD amastigote: amastigotes in RAW macrophages, MTT; for Therapeutic Index (TC50/IC50) amastigotes: TC50 RAW / IC50 amastigote
Protocol: The RAW macrophage cells were infected with promastigotes at a density of 1:10 ratio, respectively for 12 hrs and the non-phagocytosed promastigotes and media removed by aspiration. The RAW macrophages cells containing the internalized amastigote cells were treated with the compounds to test for their growth inhibitory potentials as previously described. The 3-(4,5-Dimethylthiazol-2-yl)-2,5-diphenyltetrazolium bromide (MTT) assay was also used to determine the parasite viability. […] was measured with a Varioskan Lux Elisa plate reader at a wavelength of 570 nm.

[5] = test system: RAW 264.7 murine macrophage cell line; test: Cytotoxicity against mammalian RAW macrophage cell line (MTT assay); conditions: 48 hrs, 50% cytotoxic concentration
From the text: Here, amphotericin B was used as a positive control and the negative control was untreated RAW cell line.

O+ human red blood cells = test: Haemolytic potential; conditions: 2% haematocrit, up to 100 μg/ml
Protocol: The compounds were tested against the O^+ human red blood cells (obtained from the Malaria laboratory of WACCBIP) at a density of 2% haematocrit for their ability to lyse erythrocytes upon incubation. Here, a concentration of up to 100 μg/ml of compounds was used, and the 50% haemolytic concentration (HC50) of the compounds were determined by analysis of dose-response curves as described.

[6] = test system: Leishmania donovani promastigotes; test: Morphological and mitochondrion effects by fluorescence microscopy (DAPI, MitoTracker); format: cell-based; conditions: for morphological / mitochondrial changes after 72 hrs: 2x IC50, 72 hrs
Protocol: Their mitochondrial integrity were analyzed using a slightly modified DAPI and Mitotracker dye protocol as described by Amisigo and colleagues.

[7] = test system: Leishmania donovani promastigotes; test: Growth kinetics and cytocidal/cytostatic (growth reversibility) assay; format: cell-based; conditions: 1 μg/ml, 120 hrs treatment, then 96 hrs in fresh media
Protocol: The compounds (at 1 μg/ml) were tested for their effects on the growth kinetic pattern against the promastigotes of L. donovani. The parasite cells (2 x 10^5 cells/ml) were incubated at 25° C in the presence of the test compounds in M199 supplemented with 10% FBS. Amphotericin B treated parasites (0–50 μg/ml) were used as the positive control while the untreated promastigotes in medium alone served as the negative control. Viable cells were counted every 24 hrs for a total of 120 hrs as indicated in previous studies.
The cytocidal/cytostatic effect of the test compounds were assessed by analyzing the treated and untreated parasites after 120 hrs of incubation. Cells were washed twice with fresh M199, resuspended in complete M199 media and incubated further for 96 hrs. The viable cells were then counted microscopically.

| SMILES | ROS generation effect in amastigotes [1] | ROS generation effect in promastigotes [2] | IC50 [3] [µg/mL] | Therapeutic Index (TC50/IC50) promastigotes [3] | IC50 [4] [µg/mL] | Therapeutic Index (TC50/IC50) amastigotes [4] | TC50 (μg/ml) ±SD RAW [5] [µg/mL] | HC50 (O+ human red blood cells) [µg/mL] | morphological / mitochondrial changes after 24 hrs ([6]; 2x IC50, 24 hrs) | morphological / mitochondrial changes after 72 hrs [6] | IC50 (μg/ml) ±SD promastigote [3] [µg/mL] | IC50 (μg/ml) ±SD amastigote [4] [µg/mL] | cytocidal/cytostatic effect upon drug withdrawal [7] | cells with slight enlargement of nuclear and kinetoplast DNA ([6]; 2x IC50, 24 hrs) [%] |
| --- | --- | --- | --- | --- | --- | --- | --- | --- | --- | --- | --- | --- | --- | --- |
| O=C1O[C@H]([C@@H](O)CO)C(O)=C1O [Vitamin C, reference compound] | anti-oxidative effect | anti-oxidative effect |  |  |  |  |  |  |  |  |  |  |  |  |
| CC(C)(C)C(O)C(Oc1ccc(-c2ccccc2)cc1)n1cncn1 (stereo not drawn) [MMV688942] |  | anti-oxidative effect |  |  |  |  |  |  |  |  |  |  |  |  |
| N=C(N)c1ccc(-c2cc(-c3ccccc3)on2)cc1 [Compound E02A] |  | anti-oxidative effect | 0.29 ± 0.001 (≈ 1.1 µM) | 344.83 | 5.34 ± 0.01 (≈ 20.3 µM) | 18.73 | >100 | >100 | did not show marked morphological changes | degenerate after 72 hrs |  |  |  |  |
| CS(=O)(=O)c1ccccc1C(=O)N(Cc1ccccc1)c1ccccc1 [Compound H05A] |  | anti-oxidative effect |  | 0.19 |  | 0.60 | 0.15 ± 0.030 (≈ 0.41 µM) | >100 |  |  | 0.78 ± 0.170 (≈ 2.13 µM) | 0.25 ± 0.040 (≈ 0.684 µM) |  |  |
| Cc1ncc(-c2ccnc(Nc3ccc(S(C)(=O)=O)cc3)n2)n1C(C)C [Compound B03B] | anti-oxidative effect | pro-oxidative action |  | 1.25 |  | 0.63 | 0.25 ± 0.040 (≈ 0.673 µM) | >100 |  |  | 0.20 ± 0.040 (≈ 0.538 µM) | 0.40 ± 0.050 (≈ 1.08 µM) | cytocidal effect |  |
| CC1(C)S[C@@H]2[C@H](NC(=O)[C@H](N)c3ccc(O)cc3)C(=O)N2[C@H]1C(=O)O [Amoxicillin, reference compound] | pro-oxidative effect | pro-oxidative action |  |  |  |  |  |  |  |  |  |  |  |  |
| O=C(Nc1ccc2c(c1)B(O)OC2)c1ccccc1C(F)(F)F [Compound A03B] | anti-oxidative effect | anti-oxidative effect |  | 0.41 |  | 0.90 | 0.18 ± 0.050 (≈ 0.561 µM) | >100 |  |  | 0.44 ± 0.200 (≈ 1.37 µM) | 0.20 ± 0.030 (≈ 0.623 µM) |  |  |
| O=C(NCc1nnc2n1CCCCC2)c1ccc(-c2ccc(F)cc2)o1 [Compound A06A] |  | anti-oxidative effect | 0.19 ± 0.008 (≈ 0.536 µM) | 2.05 | 0.38 ± 0.01 (≈ 1.07 µM) | 1.03 | 0.39 ± 0.05 (≈ 1.1 µM) | >100 |  | most of the few cells left lost their kinetoplast DNA |  |  |  | 50 |
| Nc1ncnc2c1ncn2C[C@@H](O)[C@@H](O)C(=O)O [MMV689255] | anti-oxidative effect |  |  |  |  |  |  |  |  |  |  |  |  |  |
| c1ccc(Oc2ccc(-c3cc(C4CCOCC4)n[nH]3)cc2)cc1 [Compound D02A] |  |  | 0.21 ± 0.01 (≈ 0.655 µM) | 476.19 | 0.22 ± 0.02 (≈ 0.687 µM) | 454.55 | >100 | >100 | degeneration in the mitochondria integrity | degeneration of the nuclear and kinetoplast DNA continued |  |  |  |  |
| CC(C)(C)OC(=O)N1CCN(c2cc(-c3ccc(Oc4ccccc4)cc3)n[nH]2)CC1 [MMV676057] | pro-oxidative effect | anti-oxidative effect |  |  |  |  |  |  |  |  |  |  |  |  |
| CC1CCCCN1C(=O)NCCc1coc(-c2ccc(F)cc2)n1 (stereo not drawn) [Compound E05A] |  | anti-oxidative effect |  | 256.41 |  | 36.50 | >100 | >100 |  |  | 0.39 ± 0.060 (≈ 1.18 µM) | 2.74 ± 0.100 (≈ 8.27 µM) |  |  |
| CO[C@@H](C(=O)N1Cc2[nH]nc(NC(=O)c3ccc(N4CCN(C)CC4)cc3)c2C1)c1ccccc1 [Compound C03B] |  | pro-oxidative action |  | 0.34 |  |  | 0.21 ± 0.010 (≈ 0.443 µM) | >100 |  |  | 0.62 ± 0.010 (≈ 1.31 µM) | >6.25 |  |  |
| CNC(=O)c1nn(C)c2c1C(C)(C)Cc1cnc(Nc3ccc(N4CCN(C)CC4)cc3)nc1-2 [Compound H02B] | pro-oxidative effect | anti-oxidative effect |  | 0.92 |  | 0.02 | 0.11 ± 0.010 (≈ 0.239 µM) | >100 |  |  | 0.12 ± 0.150 (≈ 0.261 µM) | >6.25 | cytocidal effect |  |
| CCc1nn(C)c(C(=O)NCc2ccc(Oc3ccc(C)cc3)cc2)c1Cl [MMV688934] |  | anti-oxidative effect |  |  |  |  |  |  |  |  |  |  |  |  |
| CCC(=O)Nc1ccccc1C(=O)Nc1ccccn1 [MMV202553] |  | anti-oxidative effect |  |  |  |  |  |  |  |  |  |  |  |  |
| O=C(Nc1ccccc1-c1nc2c(C(=O)O)cccc2o1)c1ccccc1 [Compound C06D] | pro-oxidative effect | anti-oxidative effect |  | 0.06 |  | 0.13 | 0.39 ± 0.010 (≈ 1.09 µM) | >100 |  |  | >6.25 | 3.0 ± 0.001 (≈ 8.37 µM) | cytocidal effect |  |
| Clc1cccc(CO[C@H]2CCc3ccccc3[C@@H]2n2ccnn2)c1 [Compound A07E] |  |  |  | 0.07 |  | 0.07 | 0.41 ± 0.020 (≈ 1.21 µM) | >100 |  |  | >6.25 | >6.25 |  |  |
| CCOc1ccc2cc(-c3nn(CC4CCN(C)CC4)c4ncnc(N)c34)ccc2c1 [MMV688854] | anti-oxidative effect |  |  |  |  |  |  |  |  |  |  |  |  |  |
| COc1ccc(C2=NN(C3CCCCCC3)C(=O)[C@@H]3CC=CC[C@H]23)cc1OCCCCOc1ccc(-c2nn[nH]n2)cc1 [Compound C02B] | anti-oxidative effect |  |  | 2.53 |  | 2.92 | 0.38 ± 0.010 (≈ 0.65 µM) | >100 |  |  | 0.15 ± 0.130 (≈ 0.257 µM) | 0.13 ± 0.004 (≈ 0.222 µM) |  |  |
| CCN(CC)CCCCCCNc1cc(OC)cc2c(C)ccnc12 [MMV000063] | anti-oxidative effect |  |  |  |  |  |  |  |  |  |  |  |  |  |
| C[C@@H]1[C@H](O)[C@@H](C)/C=C/C=C/C=C/C=C/C=C/C=C/C=C/[C@H](O[C@@H]2O[C@H](C)[C@@H](O)[C@H](N)[C@@H]2O)C[C@@H]2O[C@](O)(C[C@@H](O)C[C@@H](O)[C@H](O)CC[C@@H](O)C[C@@H](O)CC(=O)O[C@H]1C)C[C@H](O)[C@H]2C(=O)O [Amphotericin B, reference compound] | anti-oxidative effect | anti-oxidative effect |  |  |  |  |  |  |  |  |  |  |  |  |
